The record followed here is PubChem BioAssay (NCI).

Among the test systems are HT29 colon; HCT-15 colon; SNB-19 CNS; NCI-H226 lung; HCT-116 colon; BT-549 breast; MDA-MB-435; MOLT-4 leukemia; ACHN renal; IGROV1 ovarian.
Common to all, as to assay: growth of human tumour cells (NCI), 48 h

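Cultured in 96-well plates, cells were exposed to test compound for 48 hours across five concentrations. GI50 marks 50% less growth. TGI marks complete inhibition of growth.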

Turning to `NC(=O)c1cc(I)ccc1NC(=O)COc1ccccc1`, the GI50 in the test on HT29 colon was 0.367 µM; in the test on HCT-15 colon, 0.33 µM; in the test with SNB-19 CNS, 0.699 µM; in the test with NCI-H226 lung it was 3.48 µM; in the test with HCT-116 colon it was 0.499 µM; in the test with BT-549 breast, 0.644 µM. In addition, the GI50 was 0.107 µM in the test on MDA-MB-435, 1.05 µM with MOLT-4 leukemia, 1.5 µM in the test with ACHN renal and 2.34 µM in the test on IGROV1 ovarian. Moreover, the TGI in the test on HT29 colon is more than 100 µM; in the test on HCT-15 colon, more than 100 µM; in the test with SNB-19 CNS, 44.1 µM; with NCI-H226 lung, more than 100 µM; in the test on HCT-116 colon it was 16.1 µM; with BT-549 breast it was 31.5 µM. Also, the TGI in the test with MDA-MB-435 was 0.359 µM; in the test on MOLT-4 leukemia, more than 78.4 µM; in the test with ACHN renal, more than 100 µM; with IGROV1 ovarian, more than 100 µM.
As to `Nc1ccn([C@@H]2C(F)=C(CO)[C@@H](O)[C@H]2O)c(=O)n1`, the GI50 in the test with HT29 colon is 0.625 µM; in the test with HCT-15 colon it was 0.545 µM; in the test with SNB-19 CNS, 2.81 µM; in the test with NCI-H226 lung it was 11.5 µM; in the test with HCT-116 colon it was 0.395 µM; in the test on BT-549 breast, 23.5 µM. Moreover, the GI50 with MDA-MB-435 was 0.846 µM; in the test on MOLT-4 leukemia, 1.85 µM; in the test with ACHN renal, 0.755 µM; in the test on IGROV1 ovarian, 2.88 µM. Besides, the TGI in the test on HT29 colon, in the test on HCT-15 colon, in the test on SNB-19 CNS, with NCI-H226 lung, in the test with HCT-116 colon and with BT-549 breast was more than 100 µM in each case. In addition, the TGI in the test on MDA-MB-435, with MOLT-4 leukemia, with ACHN renal and in the test on IGROV1 ovarian was more than 100 µM each time.
Take `CC(C)(CO)N=Cc1ccccc1[O-].CC(C)(CO)N=Cc1ccccc1[O-].[Co+2]`: the GI50 is 100 µM in the test on HT29 colon; 69.7 µM with HCT-15 colon; more than 100 µM in the test with SNB-19 CNS; 27.9 µM in the test on NCI-H226 lung; 69.8 µM in the test with HCT-116 colon; 14.5 µM with BT-549 breast. Besides, the GI50 with MDA-MB-435 was 38.4 µM; in the test on MOLT-4 leukemia it was 8.39 µM; in the test with ACHN renal, more than 81.4 µM; with IGROV1 ovarian, 84.3 µM. Also, the TGI is more than 100 µM in the test with HT29 colon; more than 100 µM in the test on HCT-15 colon; more than 100 µM in the test with SNB-19 CNS; more than 100 µM with NCI-H226 lung; more than 100 µM in the test with HCT-116 colon; more than 63.4 µM with BT-549 breast. In addition, the TGI in the test with MDA-MB-435, in the test with MOLT-4 leukemia, in the test with ACHN renal and in the test with IGROV1 ovarian was more than 100 µM in each case.
`CN(C)C/C=C/C(=O)Nc1ccc(C(=O)N2CCC[C@@H](Nc3ncc(Cl)c(-c4c[nH]c5ccccc45)n3)C2)cc1`: the GI50 in the test on HT29 colon was 0.285 µM; in the test with HCT-15 colon it was 8.65 µM; with SNB-19 CNS, 0.196 µM; with NCI-H226 lung it was 0.365 µM; in the test on HCT-116 colon, 0.154 µM; with BT-549 breast it was 0.267 µM. Besides, the GI50 with MDA-MB-435 was 0.0832 µM; in the test with MOLT-4 leukemia, 0.182 µM; with ACHN renal, 3.41 µM; in the test on IGROV1 ovarian, 0.149 µM. Moreover, the TGI with HT29 colon is 4.2 µM; in the test on HCT-15 colon, 23.2 µM; with SNB-19 CNS, 11.1 µM; with NCI-H226 lung, 3.2 µM; with HCT-116 colon, 10.6 µM; with BT-549 breast, 1.22 µM. The TGI with MDA-MB-435 is 1.23 µM; with MOLT-4 leukemia, 3.55 µM; in the test on ACHN renal it was 12.7 µM; with IGROV1 ovarian it was 11.3 µM.
On to `CC12OC(C(=O)C13CCC3)C1C(=O)c3ccccc3C(=O)C12` (stereo not given), for which the GI50 in the test with HT29 colon is more than 100 µM; in the test with HCT-15 colon it was more than 100 µM; in the test with SNB-19 CNS, more than 100 µM; in the test on NCI-H226 lung it was 38.4 µM; in the test with HCT-116 colon it was more than 100 µM; in the test on BT-549 breast it was more than 100 µM. For the same compound, the GI50 with MDA-MB-435 was more than 100 µM; with MOLT-4 leukemia, 37.6 µM; in the test on ACHN renal it was more than 100 µM; in the test on IGROV1 ovarian, more than 100 µM. Moreover, the TGI with HT29 colon, with HCT-15 colon, with SNB-19 CNS, in the test with NCI-H226 lung, with HCT-116 colon and in the test with BT-549 breast was more than 100 µM throughout. The TGI with MDA-MB-435, in the test with MOLT-4 leukemia, in the test with ACHN renal and in the test with IGROV1 ovarian was more than 100 µM each time.
In the case of `O=C(Nc1cc(S(=O)(=O)c2ccc(Cl)cc2)ccc1Cl)c1cc(I)cc(I)c1O`, the GI50 in the test on HT29 colon was 16.4 µM; with HCT-15 colon, 16.5 µM; with SNB-19 CNS, 14.9 µM; with NCI-H226 lung, 26.8 µM; in the test on HCT-116 colon, 14.3 µM; in the test with BT-549 breast, 19.9 µM. In addition, the GI50 is 17.4 µM in the test on MDA-MB-435, 19.3 µM in the test with MOLT-4 leukemia, 17.1 µM with ACHN renal and 20 µM with IGROV1 ovarian. In addition, the TGI with HT29 colon came out at 30.2 µM; in the test with HCT-15 colon it was 32.7 µM; with SNB-19 CNS, 29.3 µM; with NCI-H226 lung it was 69.1 µM; in the test with HCT-116 colon, 27.7 µM; in the test with BT-549 breast it was 39.8 µM. In addition, the TGI is 37.8 µM with MDA-MB-435, 41 µM in the test on MOLT-4 leukemia, 36 µM with ACHN renal and 37.7 µM in the test on IGROV1 ovarian.
As to `COc1cc([C@H]2c3[nH]c4ccccc4c3C[C@H]3COC(=O)N32)cc(OC)c1O`, the TGI with HT29 colon was 25.3 µM; in the test with HCT-15 colon, 38.5 µM; with SNB-19 CNS, more than 100 µM; in the test on NCI-H226 lung, 28.5 µM; in the test on HCT-116 colon it was 51.2 µM; in the test with BT-549 breast, more than 100 µM. In addition, the TGI in the test on MDA-MB-435 was more than 100 µM; in the test on MOLT-4 leukemia, 11.2 µM; in the test with ACHN renal it was 28.5 µM; in the test on IGROV1 ovarian it was more than 86.3 µM.
